Here are results for 18 molecules from US20230093099A1, “COMPOUNDS AND METHODS OF TREATING CANCERS” (CULLGEN (SHANGHAI), INC., priority 2019, published 2023).

In general, IC50 refers to the concentration that gives 50% inhibition.

Molecules are shown by their SMILES. A value given as a limit tells only on which side of the number the result lay.

In the assay the test system is RS4;11 cells. As to the kind of experiment: Cell viability assay (CellTiter-Glo) in RS4;11 cells. Format: cell-based. The following applies: Homo sapiens, 72 h; RS4;11 cells; cell viability, 3 days, CellTiter-Glo; read-out: IC50. The method, boiled down:
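Three-day compound treatment of RS4;11 ALL cells (5000/well, 3-fold dilution series of 8 or 12 points), with IC50 from a nonlinear least-squares fit to CellTiter-Glo viability data.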
For orientation: ATP-based viability assays read luminescence as a measure of living cells.
On to `Cc1ncsc1-c1ccc(CNC(=O)[C@@H]2C[C@@H](O)CN2C(=O)[C@@H](NC(=O)CCOCCOCCOCCOCCC(=O)N2CCC(n3cc(-c4cnc5cccc(-c6cc(F)c(CN7CCOCC7)c(F)c6)c5n4)cn3)CC2)C(C)(C)C)cc1` [JA-061, (2S,4R)-1-[(2S)-2-[3-[2-[2-[2-[3-[4-[4-[8-[3,5-Difluoro-4-(morpholinomethyl)phenyl]quinoxalin-2-yl]pyrazol-1-yl]-1-piperidyl]-3-oxo-propoxy]ethoxy]ethoxy]ethoxy]propanoylamino]-3,3-dimethyl-butanoyl]-4-hydroxy-N-[[4-(4-methylthiazol-5-yl)phenyl]methyl]pyrrolidine-2-carboxamide], for which the concentration for half-maximal inhibition (IC50) was more than 10 µM. As to `Cc1ncsc1-c1ccc(CNC(=O)[C@@H]2C[C@@H](O)CN2C(=O)[C@@H](NC(=O)CCCNC(=O)CN2CCN(c3ccc(Nc4nc5cccc(-c6ccc(S(C)(=O)=O)cc6)n5n4)cc3)CC2)C(C)(C)C)cc1` [JA-125, (2S,4R)-1-((S)-3,3-Dimethyl-2-(4-(2-(4-(4-((5-(4-(methylsulfonyl)phenyl)-[1,2,4]triazolo[1,5-a]pyridin-2-yl)amino)phenyl)piperazin-1-yl)acetamido)butanamido)butanoyl)-4-hydroxy-N-(4-(4-methylthiazol-5-yl)benzyl)pyrrolidine-2-carboxamide], the IC50 is more than 10 µM.

As to `Cc1ncsc1-c1ccc(CNC(=O)[C@@H]2C[C@@H](O)CN2C(=O)[C@@H](NC(=O)CCCCCCC(=O)N2CCC(n3cc(-c4cnc5cccc(-c6cc(F)c(CN7CCOCC7)c(F)c6)c5n4)cn3)CC2)C(C)(C)C)cc1` [JA-052, (2S,4R)-1-[1 (2S)-2-[[8-[4-[4-[8-[3,5-Difluoro-4-(morpholinomethyl)phenyl]quinoxalin-2-yl]pyrazol-1-yl]-1-piperidyl]-8-oxo-octanoyl]amino]-3,3-dimethyl-butanoyl]-4-hydroxy-N-[[14-(4-methylthiazol-5-yl)phenyl]methyl]pyrrolidine-2-carboxamide], the IC50 was more than 10 µM.

In the case of `O=C1CCC(N2C(=O)c3cccc(NCCOCCOCCOCCOCCC(=O)N4CCC(n5cc(-c6cnc7cccc(-c8cc(F)c(CN9CCOCC9)c(F)c8)c7n6)cn5)CC4)c3C2=O)C(=O)N1` (stereo not drawn) [JA-047, 4-[2-[2-[2-[2-[3-[4-[4-[8-[3,5-Difluoro-4-(morpholinomethyl)phenyl]quinoxalin-2-yl]pyrazol-1-yl]-1-piperidyl]-3-oxo-propoxy]ethoxy]ethoxy]ethoxy]ethylamino]-2-(2,6-dioxo-3-piperidyl)isoindoline-1,3-dione], the IC50 came to 3.44 µM. The result for `Cc1cnc(Nc2ccc(N3CCN(C(=O)CCOCCC(=O)N[C@H](C(=O)N4C[C@H](O)C[C@H]4C(=O)NCc4ccc(-c5scnc5C)cc4)C(C)(C)C)CC3)cc2)nc1Nc1cccc(S(=O)(=O)NC(C)(C)C)c1` [JA-031, (2S,4R)-1-((S)-2-(3-(3-(4-(4-((4-((3-(N-(tert-Butyl)sulfamoyl)phenyl)amino)-5-methylpyrimidin-2-yl)amino)phenyl)piperazin-1-yl)-3-oxopropoxy)propanamido)-3,3-dimethylbutanoyl)-4-hydroxy-N-(4-(4-methylthiazol-5-yl)benzyl)pyrrolidine-2-carboxamide] reads more than 10 µM; that for `Cc1cnc(Nc2ccc(N3CCN(C(=O)CCNc4cccc5c4C(=O)N(C4CCC(=O)NC4=O)C5=O)CC3)cc2)nc1Nc1cccc(S(=O)(=O)NC(C)(C)C)c1` (stereo not drawn) [JA-009, N-(tert-Butyl)-3-((2-((4-(4-(3-((2-(2,6-dioxopiperidin-3-yl)-1,3-dioxoisoindolin-4-yl)amino)propanoyl)piperazin-1-yl)phenyl)amino)-5-methylpyrimidin-4-yl)amino)benzenesulfonamide], 2.58 µM. Turning to `O=C(CN1CCC(n2cc(-c3cnc4cccc(-c5cc(F)c(CN6CCOCC6)c(F)c5)c4n3)cn2)CC1)NCCOCCNc1cccc2c1C(=O)N(C1CCC(=O)NC1=O)C2=O` (stereo not drawn) [JA-139, 2-[4-[4-[8-[3,5-Difluoro-4-(morpholinomethyl)phenyl]quinoxalin-2-yl]pyrazol-1-yl]-1-piperidyl]-N-[2-[2-[[2-(2,6-dioxo-3-piperidyl)-1,3-dioxo-isoindolin-4-yl]amino]ethoxy]ethyl]acetamide], the IC50 was more than 10 µM. Regarding `O=C1CCC(N2Cc3ccc(CCCCCCC(=O)N4CCC(n5cc(-c6cnc7cccc(-c8cc(F)c(CN9CCOCC9)c(F)c8)c7n6)cn5)CC4)cc3C2=O)C(=O)N1` (stereo not drawn) [JA-269, 3-(6-(7-(4-(4-(8-(3,5-difluoro-4-(morpholinomethyl)phenyl)quinoxalin-2-yl)-1H-pyrazol-1-yl)piperidin-1-yl)-7-oxoheptyl)-1-oxoisoindolin-2-yl)piperidine-2,6-dione], the IC50 came out at 0.0038 µM.

On to `Cc1ncsc1-c1ccc(CNC(=O)[C@@H]2C[C@@H](O)CN2C(=O)[C@@H](NC(=O)CCCCCCCCC(=O)N2CCC(n3cc(-c4cnc5cccc(-c6cc(F)c(CN7CCOCC7)c(F)c6)c5n4)cn3)CC2)C(C)(C)C)cc1` [JA-042, (2S,4R)-1-[(2S)-2-[[10-[4-[4-[8-[3,5-Difluoro-4-(morpholinomethyl)phenyl]quinoxalin-2-yl]pyrazol-1-yl]-1-piperidyl]-10-oxo-decanoyl]amino]-3,3-dimethyl-butanoyl]-4-hydroxy-N-[[4-(4-methylthiazol-5-yl)phenyl]methyl]pyrrolidine-2-carboxamide], for which the IC50 is more than 10 µM. In the case of `O=C1CCC(N2C(=O)c3cccc(NCC(=O)N4CCC(n5cc(-c6cnc7cccc(-c8cc(F)c(CN9CCOCC9)c(F)c8)c7n6)cn5)CC4)c3C2=O)C(=O)N1` (stereo not drawn) [JA-002, 4-[[2-[4-[4-[8-[3,5-Difluoro-4-(morpholinomethyl)phenyl]quinoxalin-2-yl]pyrazol-1-yl]-1-piperidyl]-2-oxo-ethyl]amino]-2-(2,6-dioxo-3-piperidyl)isoindoline-1,3-dione], the IC50 amounted to 5.44 µM.

For the molecule `Cc1cnc(Nc2ccc(N3CCN(CC(=O)NCCCCCC(=O)N[C@H](C(=O)N4C[C@H](O)C[C@H]4C(=O)NCc4ccc(-c5scnc5C)cc4)C(C)(C)C)CC3)cc2)nc1Nc1cccc(S(=O)(=O)NC(C)(C)C)c1` [JA-101, (2S,4R)-1-((S)-2-(6-(2-(4-(4-((4-((3-(N-(tert-Butyl)sulfamoyl)phenyl)amino)-5-methylpyrimidin-2-yl)amino)phenyl)piperazin-1-yl)acetamido)hexanamido)-3,3-dimethylbutanoyl)-4-hydroxy-N-(4-(4-methylthiazol-5-yl)benzyl)pyrrolidine-2-carboxamide], the IC50 was more than 10 µM. The result for `CS(=O)(=O)c1ccc(-c2cccc3nc(Nc4ccc(N5CCN(CC(=O)NCCNc6cccc7c6C(=O)N(C6CCC(=O)NC6=O)C7=O)CC5)cc4)nn23)cc1` (stereo not drawn) [JA-117, N-(2-((2-(2,6-Dioxopiperidin-3-yl)-1,3-dioxoisoindolin-4-yl)amino)ethyl)-2-(4-(4-((5-(4-(methylsulfonyl)phenyl)-[1,2,4]triazolo[1,5-a]pyridin-2-yl)amino)phenyl)piperazin-1-yl)acetamide] reads 1.44 µM; that for `Cc1ncsc1-c1ccc(CNC(=O)[C@@H]2C[C@@H](O)CN2C(=O)[C@@H](NC(=O)CCCC(=O)N2CCC(n3cc(-c4cnc5cccc(-c6cc(F)c(CN7CCOCC7)c(F)c6)c5n4)cn3)CC2)C(C)(C)C)cc1` [JA-046, (2S,4R)-1-[(2S)-2-[[5-[4-[4-[8-[3,5-Difluoro-4-(morpholinomethyl)phenyl]quinoxalin-2-yl]pyrazol-1-yl]-1-piperidyl]-5-oxo-pentanoyl]amino]-3,3-dimethyl-butanoyl]-4-hydroxy-N-[[4-(4-methylthiazol-5-yl)phenyl]methyl]pyrrolidine-2-carboxamide], more than 10 µM; that for `Cc1cnc(Nc2ccc(N3CCN(CC(=O)NCCOCCOCCNc4ccc5c(c4)C(=O)N(C4CCC(=O)NC4=O)C5=O)CC3)cc2)nc1Nc1cccc(S(=O)(=O)NC(C)(C)C)c1` (stereo not drawn) [JA-238, 2-(4-(4-((4-((3-(N-(tert-butyl)sulfamoyl)phenyl)amino)-5-methylpyrimidin-2-yl)amino)phenyl)piperazin-1-yl)-N-(2-(2-(2-((2-(2,6-dioxopiperidin-3-yl)-1,3-dioxoisoindolin-5-yl)amino)ethoxy)ethoxy)ethyl)acetamide], 0.723 µM. In the case of `CS(=O)(=O)c1ccc(-c2cccc3nc(Nc4ccc(N5CCN(CCCCCCCc6ccc7c(c6)C(=O)N(C6CCC(=O)NC6=O)C7=O)CC5)cc4)nn23)cc1` (stereo not drawn) [JA-253, 2-(2,6-Dioxopiperidin-3-yl)-5-(7-(4-(4-((5-(4-(methylsulfonyl)phenyl)-[1,2,4]triazolo[1,5-a]pyridin-2-yl)amino)phenyl)piperazin-1-yl)heptyl)isoindoline-1,3-dione], the IC50 came to 0.298 µM. Consider `CS(=O)(=O)c1ccc(-c2cccc3nc(Nc4ccc(N5CCN(C(=O)CCOCCOCCOCCOCCOCCNc6cccc7c6C(=O)N(C6CCC(=O)NC6=O)C7=O)CC5)cc4)nn23)cc1` (stereo not drawn) [JA-077, 2-(2,6-Dioxo-piperidin-3-yl)-4-(2-{2-[2-(2-{2-[3-(4-{4-[5-(4-methanesulfonyl-phenyl)-[1,2,4]triazolo[1,5-a]pyridin-2-ylamino]-phenyl}-piperazin-1-yl)-3-oxo-propoxy]-ethoxy}-ethoxy)-ethoxy]-ethoxy}-ethylamino)-isoindole-1,3-dione], for which the IC50 stood at 0.407 µM. For `CS(=O)(=O)c1ccc(-c2cccc3nc(Nc4ccc(N5CCN(C(=O)CCCCCCNc6cccc7c6C(=O)N(C6CCC(=O)NC6=O)C7=O)CC5)cc4)nn23)cc1` (stereo not drawn) [JA-078, 2-(2,6-Dioxo-piperidin-3-yl)-4-[7-(4-{4-[5-(4-methanesulfonyl-phenyl)-[1,2,4]triazolo[1,5-a]pyridin-2-ylamino]-phenyl}-piperazin-1-yl)-7-oxo-heptylamino]-isoindole-1,3-dione] the value was more than 10 µM; for `CS(=O)(=O)c1ccc(-c2cccc3nc(Nc4ccc(N5CCN(C(=O)CCCCCn6c(=O)n(C7CCC(=O)NC7=O)c7ccccc76)CC5)cc4)nn23)cc1` (stereo not drawn) [JA-280, 3-(3-(6-(4-(4-((5-(4-(Methylsulfonyl)phenyl)-[1,2,4]triazolo[1,5-a]pyridin-2-yl)amino)phenyl)piperazin-1-yl)-6-oxohexyl)-2-oxo-2,3-dihydro-1H-benzo[d]imidazol-1-yl)piperidine-2,6-dione], more than 0.5 µM.
